For this experiment, the target named is T1, Nav1.7 (or SCN9A) channel; HEK cells stably transfected with hSCN9A (Homo sapiens, UniProt Q15858).
T1 construct: expressed in transfected cells
The experiment in a line: Nav1.7 block, PatchXpress 7000 automated whole-cell voltage clamp, estimated IC50 (EIC50). The conditions noted are these: estimated IC50; hSCN9A HEK cells, PatchXpress platform; Examples 283-814. In kind it is cell-based.

This passage reports IC50 results from patent publication US8541588B2, “Sulfonamide derivatives” (Pfizer Limited, priority 2009, dated 2013).

T1 sequence (Q15858 whole entry): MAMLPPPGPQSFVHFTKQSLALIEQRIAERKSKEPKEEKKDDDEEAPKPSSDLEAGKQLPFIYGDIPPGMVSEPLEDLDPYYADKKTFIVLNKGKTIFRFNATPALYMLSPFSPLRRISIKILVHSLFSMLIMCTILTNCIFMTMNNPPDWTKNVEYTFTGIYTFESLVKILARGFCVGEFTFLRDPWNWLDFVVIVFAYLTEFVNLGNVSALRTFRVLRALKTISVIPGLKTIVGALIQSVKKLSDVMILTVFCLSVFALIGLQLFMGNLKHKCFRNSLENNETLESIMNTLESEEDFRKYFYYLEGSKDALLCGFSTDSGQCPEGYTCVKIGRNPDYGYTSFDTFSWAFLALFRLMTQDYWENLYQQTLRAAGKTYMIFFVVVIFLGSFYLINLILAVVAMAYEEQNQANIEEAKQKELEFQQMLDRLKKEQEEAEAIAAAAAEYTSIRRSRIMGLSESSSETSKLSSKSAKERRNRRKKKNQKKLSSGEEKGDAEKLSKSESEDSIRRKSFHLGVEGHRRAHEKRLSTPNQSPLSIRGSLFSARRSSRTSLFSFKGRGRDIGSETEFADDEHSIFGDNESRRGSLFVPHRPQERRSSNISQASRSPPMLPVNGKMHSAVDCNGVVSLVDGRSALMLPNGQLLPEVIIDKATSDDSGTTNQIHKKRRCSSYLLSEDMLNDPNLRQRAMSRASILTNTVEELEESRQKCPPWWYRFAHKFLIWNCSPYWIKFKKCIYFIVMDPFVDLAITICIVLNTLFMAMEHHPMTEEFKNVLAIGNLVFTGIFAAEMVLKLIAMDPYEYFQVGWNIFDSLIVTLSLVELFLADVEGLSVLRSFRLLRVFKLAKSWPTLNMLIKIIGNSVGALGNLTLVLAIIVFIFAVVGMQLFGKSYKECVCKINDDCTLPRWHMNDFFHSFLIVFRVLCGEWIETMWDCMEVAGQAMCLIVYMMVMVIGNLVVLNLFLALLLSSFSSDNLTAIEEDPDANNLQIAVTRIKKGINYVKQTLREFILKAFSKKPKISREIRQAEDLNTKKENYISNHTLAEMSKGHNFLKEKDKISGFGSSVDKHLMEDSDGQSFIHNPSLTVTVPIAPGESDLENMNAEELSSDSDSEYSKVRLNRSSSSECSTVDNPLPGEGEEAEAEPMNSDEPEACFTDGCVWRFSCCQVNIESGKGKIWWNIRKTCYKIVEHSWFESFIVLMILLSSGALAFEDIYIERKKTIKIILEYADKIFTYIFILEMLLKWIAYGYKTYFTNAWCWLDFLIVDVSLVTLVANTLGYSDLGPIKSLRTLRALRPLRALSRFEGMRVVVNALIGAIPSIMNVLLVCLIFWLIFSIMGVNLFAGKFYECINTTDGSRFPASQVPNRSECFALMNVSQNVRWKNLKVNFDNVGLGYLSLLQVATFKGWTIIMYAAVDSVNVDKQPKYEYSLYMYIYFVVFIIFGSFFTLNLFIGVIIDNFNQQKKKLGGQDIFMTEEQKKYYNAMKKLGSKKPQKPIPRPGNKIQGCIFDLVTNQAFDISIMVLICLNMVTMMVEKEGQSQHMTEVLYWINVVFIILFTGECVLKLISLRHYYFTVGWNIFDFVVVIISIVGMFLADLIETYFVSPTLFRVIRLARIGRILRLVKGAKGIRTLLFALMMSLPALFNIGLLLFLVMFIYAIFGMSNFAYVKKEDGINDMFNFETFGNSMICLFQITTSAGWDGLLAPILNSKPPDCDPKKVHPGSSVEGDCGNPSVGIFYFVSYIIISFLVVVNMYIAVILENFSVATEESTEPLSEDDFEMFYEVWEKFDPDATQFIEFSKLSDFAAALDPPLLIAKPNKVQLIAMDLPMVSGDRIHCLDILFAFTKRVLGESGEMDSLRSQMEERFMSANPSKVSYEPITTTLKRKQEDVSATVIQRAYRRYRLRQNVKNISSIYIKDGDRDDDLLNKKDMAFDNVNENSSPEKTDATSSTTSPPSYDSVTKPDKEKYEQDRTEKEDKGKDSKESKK

As a reminder, the IC50 is the concentration needed to halve the response being measured. Take `N#Cc1cc(S(=O)(=O)Nc2ncns2)ccc1Oc1cc(Cl)c(F)cc1-c1cn[nH]c1` [Example 754, 4-[5-chloro-4-fluoro-2-(1H-pyrazol-4-yl)phenoxy]-3-cyano-N-1,2,4-thiadiazol-5-ylbenzenesulfonamide]: the IC50 was 5.3 nM.

`O=S(=O)(Nc1ncns1)c1cc(Cl)c(Oc2ccc(F)cc2-c2cn[nH]c2)cc1F` [Example 755, 5-chloro-2-fluoro-4-[4-fluoro-2-(1H-pyrazol-4-yl)phenoxy]-N-1,2,4-thiadiazol-5-ylbenzenesulfonamide]: the IC50 was 2.4 nM.

On to `O=S(=O)(Nc1ncns1)c1cc(F)c(Oc2ccc(F)cc2-c2cn[nH]c2)cc1F` [Example 756, 2,5-difluoro-4-[4-fluoro-2-(1H-pyrazol-4-yl)phenoxy]-N-1,2,4-thiadiazol-5-ylbenzenesulfonamide], for which the IC50 is 11 nM.

With `O=S(=O)(Nc1ncns1)c1cc(F)c(Oc2cc(F)c(Cl)cc2-c2cn[nH]c2)cc1F` [Example 757, 4-[4-chloro-5-fluoro-2-(1H-pyrazol-4-yl)phenoxy]-2,5-difluoro-N-1,2,4-thiadiazol-5-ylbenzenesulfonamide], the IC50 was 0.9 nM.

As for `CCn1nc(C(F)(F)F)cc1-c1ccc(Oc2ncc(S(=O)(=O)Nc3nccs3)cc2Cl)cc1` [Example 758, 5-chloro-6-{4-[1-ethyl-3-(trifluoromethyl)-1H-pyrazol-5-yl]phenoxy}-N-1,3-thiazol-2-ylpyridine-3-sulfonamide], the IC50 was 210 nM.

For `Cn1nccc1-c1cc(Cl)ccc1Oc1ncc(S(=O)(=O)Nc2nccs2)cc1Cl` [Example 759, 5-chloro-6-[4-chloro-2-(1-methyl-1H-pyrazol-5-yl)phenoxy]-N-1,3-thiazol-2-ylpyridine-3-sulfonamide], the IC50 was 250 nM.

In the case of `N#Cc1cc(S(=O)(=O)Nc2cscn2)ccc1Oc1ccc(Cl)cc1-c1ccnn1C1CCNCC1` [Example 760, 4-[4-chloro-2-(1-piperidin-4-yl-1H-pyrazol-5-yl)phenoxy]-3-cyano-N-1,3-thiazol-4-ylbenzenesulfonamide], the IC50 is 88 nM.

Turning to `N#Cc1cc(S(=O)(=O)Nc2cscn2)ccc1Oc1ccc(Cl)cc1-c1ccn(C2CCNCC2)n1` [Example 761, 4-[4-chloro-2-(1-piperidin-4-yl-1H-pyrazol-3-yl)phenoxy]-3-cyano-N-1,3-thiazol-4-ylbenzenesulfonamide], the IC50 was 5400 nM.

For `O=S(=O)(Nc1ncns1)c1cc(F)c(Oc2cc(F)c(Cl)cc2-c2ccn[nH]2)cc1F` [Example 762, 4-[4-chloro-5-fluoro-2-(1H-pyrazol-5-yl)phenoxy]-2,5-difluoro-N-1,2,4-thiadiazol-5-ylbenzenesulfonamide], the IC50 is 4.2 nM.

For `N#Cc1cc(S(=O)(=O)Nc2ncns2)ccc1Oc1cc(F)c(Cl)cc1-c1ccn[nH]1` [Example 763, 4-[4-chloro-5-fluoro-2-(1H-pyrazol-5-yl)phenoxy]-3-cyano-N-1,2,4-thiadiazol-5-ylbenzenesulfonamide], the IC50 was 34 nM.

In the case of `O=S(=O)(Nc1nncs1)c1cc(Cl)c(Oc2ccc(C(F)(F)F)cc2-c2cn[nH]c2)cc1F` [Example 764, 5-chloro-2-fluoro-4-[2-(1H-pyrazol-4-yl)-4-(trifluoromethyl)phenoxy]-N-1,3,4-thiadiazol-2-ylbenzenesulfonamide], the IC50 was 30 nM.

Turning to `O=S(=O)(Nc1nncs1)c1cc(Cl)c(Oc2ccc(Cl)cc2C2CCNCC2)cc1F` [Example 765, 5-chloro-4-(4-chloro-2-piperidin-4-ylphenoxy)-2-fluoro-N-1,3,4-thiadiazol-2-ylbenzenesulfonamide], the IC50 is 110 nM.

With `N#Cc1cc(S(=O)(=O)Nc2cscn2)ccc1Oc1ccc(Cl)cc1-c1cccc(N)n1` [Example 766, 4-[2-(6-aminopyridin-2-yl)-4-chlorophenoxy]-3-cyano-N-1,3-thiazol-4-ylbenzenesulfonamide], the IC50 is 500 nM.

Take `N#Cc1cc(S(=O)(=O)Nc2cscn2)ccc1Oc1ccc(Cl)cc1-c1cn[nH]c1` [Example 767, 4-[4-chloro-2-(1H-pyrazol-4-yl)phenoxy]-3-cyano-N-1,3-thiazol-4-ylbenzenesulfonamide]: the IC50 was 240 nM.

In the case of `N#Cc1cc(S(=O)(=O)Nc2cscn2)ccc1Oc1cccc(Cc2cc[nH]n2)c1` [Example 768, 3-cyano-4-[3-(1H-pyrazol-3-ylmethyl)phenoxy]-N-1,3-thiazol-4-ylbenzenesulfonamide], the IC50 is 11000 nM.

Turning to `CC(C)(C)n1ccc(Cc2cccc(Oc3ccc(S(=O)(=O)Nc4cscn4)cc3C#N)c2)n1` [Example 769, 4-{3-[(1-tert-butyl-1H-pyrazol-3-yl)methyl]phenoxy}-3-cyano-N-1,3-thiazol-4-ylbenzenesulfonamide], the IC50 was 8700 nM.

With `N#Cc1cc(S(=O)(=O)Nc2ccc(C(F)(F)F)cn2)ccc1Oc1ccccc1-c1ccccc1` [Example 770, 4-(biphenyl-2-yloxy)-3-cyano-N-[5-(trifluoromethyl)pyridin-2-yl]benzenesulfonamide], the half-maximal inhibitory concentration (IC50) was 24000 nM.

Turning to `N#Cc1ccc(Oc2cc(F)c(S(=O)(=O)Nc3ncc(Cl)s3)cc2F)c(-c2cn[nH]c2)c1` [Example 771, N-(5-chloro-1,3-thiazol-2-yl)-4-[4-cyano-2-(1H-pyrazol-4-yl)phenoxy]-2,5-difluorobenzenesulfonamide], the IC50 was 240 nM.

For `Cn1nccc1-c1cc(Cl)ccc1Oc1ccc(S(=O)(=O)Nc2ccc(C(F)(F)F)cn2)cc1C#N` [Example 772, 4-[4-chloro-2-(1-methyl-1H-pyrazol-5-yl)phenoxy]-3-cyano-N-[5-(trifluoromethyl)pyridin-2-yl]benzenesulfonamide], the 50% inhibitory concentration (IC50) was 31000 nM.

`O=S(=O)(Nc1ncns1)c1cc(Cl)c(Oc2cc(F)ccc2-c2ccn[nH]2)cc1F` [Example 773, 5-chloro-2-fluoro-4-[5-fluoro-2-(1H-pyrazol-5-yl)phenoxy]-N-1,2,4-thiadiazol-5-ylbenzenesulfonamide]: the IC50 was 6.9 nM.

Take `N#Cc1cc(S(=O)(=O)Nc2nccs2)ccc1Oc1ccc(-n2cc(F)cn2)cc1` [Example 774, 3-cyano-4-[4-(4-fluoro-1H-pyrazol-1-yl)phenoxy]-N-1,3-thiazol-2-ylbenzenesulfonamide]: the IC50 was above 1000 nM.

Consider `CC(C)(C)n1nccc1-c1cc(Cl)ccc1Oc1ccc(S(=O)(=O)Nc2ncns2)cc1C#N` [Example 775, 4-[2-(1-tert-butyl-1H-pyrazol-5-yl)-4-chlorophenoxy]-3-cyano-N-1,2,4-thiadiazol-5-ylbenzenesulfonamide], for which the IC50 is 88 nM.

On to `Cc1nnc(NS(=O)(=O)c2ccc(Oc3ccc(Cl)cc3-c3ccnn3C)c(F)c2)s1` [Example 776, 4-[4-chloro-2-(1-methyl-1H-pyrazol-5-yl)phenoxy]-3-fluoro-N-(5-methyl-1,3,4-thiadiazol-2-yl)benzenesulfonamide], for which the half-inhibitory concentration (IC50) is 2500 nM.

Turning to `O=S(=O)(Nc1cscn1)c1cc(Cl)c(Oc2ccc(Cl)cc2-c2cnn[nH]2)cc1F` [Example 777, 5-chloro-4-[4-chloro-2-(1H-1,2,3-triazol-5-yl)phenoxy]-2-fluoro-N--thiazol-4-ylbenzenesulfonamide], the 50% inhibitory concentration (IC50) was 1300 nM.

With `N#Cc1cc(S(=O)(=O)Nc2nccs2)ccc1Oc1cccc(-c2ccccc2)c1` [Example 778, 4-(biphenyl-3-yloxy)-3-cyano-N-1,3-thiazol-2-ylbenzenesulfonamide], the IC50 is 470 nM.

For the compound `Cn1nc(C(F)(F)F)cc1-c1ccc(F)c(Oc2ccc(S(=O)(=O)Nc3nccs3)cc2C#N)c1` [Example 779, 3-cyano-4-{2-fluoro-5-[1-methyl-3-(trifluoromethyl)-1H-pyrazol-5-yl]phenoxy}-N-1,3-thiazol-2-ylbenzenesulfonamide], the IC50 was 210 nM.

On to `Cn1nccc1-c1ccc(I)cc1Oc1ccc(S(=O)(=O)Nc2ncc(F)s2)cc1C#N` [Example 780, 3-cyano-N-(5-fluoro-1,3-thiazol-2-yl)-4-[5-iodo-2-(1-methyl-1H-pyrazol-5-yl)phenoxy]benzenesulfonamide], for which the IC50 is 32 nM.

For `O=S(=O)(Nc1ncns1)c1cc(F)c(Oc2ccc(F)cc2-c2ccn[nH]2)cc1F` [Example 781, 2,5-difluoro-4-[4-fluoro-2-(1H-pyrazol-5-yl)phenoxy]-N-1,2,4-thiadiazol-5-ylbenzenesulfonamide], the IC50 is 22 nM.

With `Cn1nccc1-c1cc(OC(F)(F)F)ccc1Oc1ccc(S(=O)(=O)Nc2nccs2)cc1C#N` [Example 783, 3-cyano-4-[2-(1-methyl-1H-pyrazol-5-yl)-4-(trifluoromethoxy)phenoxy]-N-1,3-thiazol-2-ylbenzenesulfonamide], the IC50 was 7.8 nM.

Turning to `N#Cc1cc(S(=O)(=O)Nc2ncc(Cl)s2)ccc1Oc1ccc(F)cc1-c1cn[nH]c1` [Example 785, N-(5-Chloro-1,3-thiazol-2-yl)-3-cyano-4-[4-fluoro-2-(1H-pyrazol-4-yl)phenoxy]benzenesulfonamide], the IC50 is 40 nM.

For `N#Cc1cc(S(=O)(=O)Nc2ncc(Cl)s2)ccc1Oc1ccc(Cl)cc1-c1cn[nH]c1` [Example 786, N-(5-Chloro-1,3-thiazol-2-yl)-3-cyano-4-[4-chloro-2-(1H-pyrazol-4-yl)phenoxy]benzenesulfonamide], the concentration for half-maximal inhibition (IC50) was 7.6 nM.

Turning to `Nc1cc(-c2cc(Cl)ccc2Oc2cc(F)c(S(=O)(=O)Nc3ncns3)cc2F)ccn1` [Example 787, 4-[2-(2-aminopyridin-4-yl)-4-chlorophenoxy]-2,5-difluoro-N-1,2,4-thiadiazol-5-ylbenzenesulfonamide], the IC50 is 7.2 nM.

Turning to `O=S(=O)(Nc1ncns1)c1cc(F)c(Oc2ccc(C(F)(F)F)cc2-c2ccn[nH]2)cc1F` [Example 789, 2,5-difluoro-4-[2-(1H-pyrazol-5-yl)-4-(trifluoromethyl)phenoxy]-N-1,2,4-thiadiazol-5-ylbenzenesulfonamide], the IC50 was 2.1 nM.

For the compound `O=S(=O)(Nc1ncns1)c1cc(F)c(Oc2ccc(C(F)(F)F)cc2-c2cn[nH]c2)cc1F` [Example 790, 2,5-difluoro-4-[2-(1H-pyrazol-4-yl)-4-(trifluoromethyl)phenoxy]-N-1,2,4-thiadiazol-5-ylbenzenesulfonamide], the IC50 is 1.2 nM.
